Test results taken from patent US9822118B2, “Bicyclic heteroaryl urea, thiourea, guanidine and cyanoguanidine compounds as TrkA kinase inhibitors” (Array BioPharma Inc., priority 2012, dated 2017).

Biological target: T1, recombinant human TrkA (Homo sapiens, UniProt P04629)
T1 construct: 6HIS tagged cytoplasmic domain from Invitrogen, Catalog No. PV3144; purchased Invitrogen PV3144
Test: TrkA LanthaScreen Eu Kinase Binding Assay
Conditions: averaged IC50; TR-FRET binding assay, 60 min at 22° C.; read-out: TrkA Enzyme IC50
Method: TrkA binding activity was determined in a TrkA LanthaScreen™ Eu Kinase Binding Assay. 5 nM His-tagged recombinant human TrkA (6HIS tagged cytoplasmic domain from Invitrogen, Catalog No. PV3144) was incubated with 4 nM Alexa-Fluor® Tracer 236 (Invitrogen Cat. No. PV5592), 2 nM biotinylated anti-His (Invitrogen Cat. No. PV6090), and 2 nM europium-labeled Streptavidin (Invitrogen Cat. No. PV5899), in buffer (25 mM MOPS, pH 7.5, 5 mM MgCl2, 0.005% Triton X-100). Three fold serial dilutions of compounds of the invention in DMSO were added to a final percentage of 2% DMSO. After 60-minute incubation at 22° C., the reaction was measured using the EnVision multimode plate reader (PerkinElmer) via TR-FRET dual wavelength detection at […]. The percent of control was calculated using a ratiometric emission factor. The IC50 values were determined by fitting a four parameter model to the percent of control data.
Table A provides averaged IC50 values for compounds of the invention when tested in the assay of Example A, where A represents an averaged IC50 value <100 nM; and B represents an averaged IC50 value from 100 to 1,000 nM.

T1 sequence (P04629 440-796 limits assumed): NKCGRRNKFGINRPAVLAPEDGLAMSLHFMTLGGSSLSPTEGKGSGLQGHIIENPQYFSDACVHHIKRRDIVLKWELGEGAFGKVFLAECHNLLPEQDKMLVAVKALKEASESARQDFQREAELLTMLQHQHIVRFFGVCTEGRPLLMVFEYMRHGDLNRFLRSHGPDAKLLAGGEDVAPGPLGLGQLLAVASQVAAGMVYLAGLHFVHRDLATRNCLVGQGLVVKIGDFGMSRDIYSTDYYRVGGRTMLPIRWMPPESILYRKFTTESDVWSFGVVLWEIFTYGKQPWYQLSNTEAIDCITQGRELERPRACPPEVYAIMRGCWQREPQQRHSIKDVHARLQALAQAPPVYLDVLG

Structure (SMILES) | IC50
Cc1nccn2c(NC(=O)Nc3c4c(nn3-c3ccccc3)CCC4)c(-c3ccccc3)nc12 [Example 1, 1-(8-methyl-2-phenylimidazo[1,2-a]pyrazin-3-yl)-3-(2-phenyl-2,4,5,6-tetrahydrocyclopenta[c]pyrazol-3-yl)urea] | < 100 nM
CCOc1nn(-c2ccccc2)c(NC(=O)Nc2c(-c3ccccc3)nc3c(C)nccn23)c1C [Example 2, 1-(3-ethoxy-4-methyl-1-phenyl-1H-pyrazol-5-yl)-3-(8-methyl-2-phenylimidazo[1,2-a]pyrazin-3-yl)urea] | < 100 nM
CCOc1nn(-c2ccccc2)c(NC(=O)Nc2c(-c3ccccc3)nc3c(C(F)(F)F)cccn23)c1C [Example 3, 1-(3-ethoxy-4-methyl-1-phenyl-1H-pyrazol-5-yl)-3-(2-phenyl-8-(trifluoromethyl)imidazo[1,2-a]pyridin-3-yl)urea] | < 100 nM
CCOc1nn(-c2ccccc2)c(NC(=O)Nc2c(-c3ccccc3)nc3c(Cl)cccn23)c1C [Example 4, 1-(8-chloro-2-phenylimidazo[1,2-a]pyridin-3-yl)-3-(3-ethoxy-4-methyl-1-phenyl-1H-pyrazol-5-yl)urea] | < 100 nM
CCOc1nn(-c2ccccc2)c(NC(=O)Nc2c(-c3ccccc3)nc3ccccn23)c1C [Example 5, 1-(3-ethoxy-4-methyl-1-phenyl-1H-pyrazol-5-yl)-3-(2-phenylimidazo[1,2-a]pyridin-3-yl)urea] | 100 to 1000 nM
CCOc1nn(-c2ccccc2)c(NC(=O)Nc2c(-c3ccccc3)nc3c(F)cccn23)c1C [Example 6, 1-(3-ethoxy-4-methyl-1-phenyl-1H-pyrazol-5-yl)-3-(8-fluoro-2-phenylimidazo[1,2-a]pyridin-3-yl)urea] | 100 to 1000 nM
CCOc1nn(-c2ccccc2)c(NC(=O)Nc2c(-c3ccccc3)nc3c(C)cccn23)c1C [Example 7, 1-(3-ethoxy-4-methyl-1-phenyl-1H-pyrazol-5-yl)-3-(8-methyl-2-phenylimidazo[1,2-a]pyridin-3-yl)urea] | < 100 nM
Cc1nn(-c2ccccc2)c(NC(=O)Nc2c(-c3ccccc3)nc3c(C)nccn23)c1C [Example 8, 1-(3,4-dimethyl-1-phenyl-1H-pyrazol-5-yl)-3-(8-methyl-2-phenylimidazo[1,2-a]pyrazin-3-yl)urea] | < 100 nM
Cc1ccc(NC(=O)Nc2c(-c3ccccc3)nc3c(C)nccn23)c(-c2ccccc2)n1 [Example 9, 1-(8-methyl-2-phenylimidazo[1,2-a]pyrazin-3-yl)-3-(6-methyl-2-phenylpyridin-3-yl)urea] | 100 to 1000 nM
Cc1c(OC[C@H](O)CO)nn(-c2ccccc2)c1NC(=O)Nc1c(-c2ccccc2)nc2c(C)cccn12 [Example 10, (R)-1-(3-(2,3-dihydroxypropoxy)-4-methyl-1-phenyl-1H-pyrazol-5-yl)-3-(8-methyl-2-phenylimidazo[1,2-a]pyridin-3-yl)urea] | 100 to 1000 nM
Cc1c(OC[C@H](C)O)nn(-c2ccccc2)c1NC(=O)Nc1c(-c2ccccc2)nc2c(C)cccn12 [Example 11, (S)-1-(3-(2-hydroxypropoxy)-4-methyl-1-phenyl-1H-pyrazol-5-yl)-3-(8-methyl-2-phenylimidazo[1,2-a]pyridin-3-yl)urea] | 100 to 1000 nM
Cc1cccn2c(NC(=O)Nc3c4c(nn3-c3ccccc3)CCC4)c(-c3ccccc3)nc12 [Example 12, 1-(8-methyl-2-phenylimidazo[1,2-a]pyridin-3-yl)-3-(2-phenyl-2,4,5,6-tetrahydrocyclopenta[c]pyrazol-3-yl)urea] | < 100 nM
O=C(Nc1c2c(nn1-c1ccccc1)CCC2)Nc1c(-c2ccccc2)nc2c(C(F)(F)F)cccn12 [Example 13, 1-(2-phenyl-2,4,5,6-tetrahydrocyclopenta[c]pyrazol-3-yl)-3-(2-phenyl-8-(trifluoromethyl)imidazo[1,2-a]pyridin-3-yl)urea] | < 100 nM
Cc1cccn2c(NC(=O)Nc3c4c(nn3-c3ccccc3)COC4)c(-c3ccccc3)nc12 [Example 14, 1-(8-methyl-2-phenylimidazo[1,2-a]pyridin-3-yl)-3-(2-phenyl-4,6-dihydro-2H-furo[3,4-c]pyrazol-3-yl)urea] | < 100 nM
CCOc1nn(-c2ccccc2)c(NC(=O)Nc2c(-c3ccccc3)nc3c(Br)cccn23)c1C [Example 15, 1-(8-bromo-2-phenylimidazo[1,2-a]pyridin-3-yl)-3-(3-ethoxy-4-methyl-1-phenyl-1H-pyrazol-5-yl)urea] | < 100 nM

The next lines start with the values.

IC50 | Structure (SMILES)
100 to 1000 nM | CCOc1nn(-c2ccccc2)c(NC(=O)Nc2c(-c3ccc(OC)nc3)nc3c(C)cccn23)c1C [Example 16, 1-(3-ethoxy-4-methyl-1-phenyl-1H-pyrazol-5-yl)-3-(2-(6-methoxypyridin-3-yl)-8-methylimidazo[1,2-a]pyridin-3-yl)urea]
< 100 nM | Cc1cccn2c(NC(=O)Nc3c4c(nn3-c3ccccc3)CS(=O)(=O)C4)c(-c3ccccc3)nc12 [Example 17, 1-(5,5-dioxido-2-phenyl-4,6-dihydro-2H-thieno[3,4-c]pyrazol-3-yl)-3-(8-methyl-2-phenylimidazo[1,2-a]pyridin-3-yl)urea]
< 100 nM | O=C(Nc1c2c(nn1-c1ccccc1)CS(=O)(=O)C2)Nc1c(-c2ccccc2)nc2c(C(F)(F)F)cccn12 [Example 18, 1-(5,5-dioxido-2-phenyl-4,6-dihydro-2H-thieno[3,4-c]pyrazol-3-yl)-3-(2-phenyl-8-(trifluoromethyl)imidazo[1,2-a]pyridin-3-yl)urea]
< 100 nM | Cc1cccn2c(NC(=O)Nc3c4c(nn3-c3ccccc3)CCCC4)c(-c3ccccc3)nc12 [Example 19, 1-(8-methyl-2-phenylimidazo[1,2-a]pyridin-3-yl)-3-(2-phenyl-4,5,6,7-tetrahydro-2H-indazol-3-yl)urea]
< 100 nM | O=C(Nc1c2c(nn1-c1ccccc1)CCCC2)Nc1c(-c2ccccc2)nc2c(C(F)(F)F)cccn12 [Example 20, 1-(2-phenyl-4,5,6,7-tetrahydro-2H-indazol-3-yl)-3-(2-phenyl-8-(trifluoromethyl)imidazo[1,2-a]pyridin-3-yl)urea]
< 100 nM | COc1nn(-c2ccccc2)c(NC(=O)Nc2c(-c3ccccc3)nc3c(C)cccn23)c1C [Example 21, 1-(3-methoxy-4-methyl-1-phenyl-1H-pyrazol-5-yl)-3-(8-methyl-2-phenylimidazo[1,2-a]pyridin-3-yl)urea]
< 100 nM | COc1nn(-c2ccccc2)c(NC(=O)Nc2c(-c3ccccc3)nc3c(C(F)(F)F)cccn23)c1C [Example 22, 1-(3-methoxy-4-methyl-1-phenyl-1H-pyrazol-5-yl)-3-(2-phenyl-8-(trifluoromethyl)imidazo[1,2-a]pyridin-3-yl)urea]
100 to 1000 nM | CCOc1nn(-c2ccccc2)c(NC(=O)Nc2c(-c3ccc(OC)cc3)nc3c(C)cccn23)c1C [Example 23, 1-(3-ethoxy-4-methyl-1-phenyl-1H-pyrazol-5-yl)-3-(2-(4-methoxyphenyl)-8-methylimidazo[1,2-a]pyridin-3-yl)urea]
100 to 1000 nM | COc1ccc(-c2nc3c(C)cccn3c2NC(=O)Nc2c3c(nn2-c2ccccc2)CS(=O)(=O)C3)cc1 [Example 24, 1-(5,5-dioxido-2-phenyl-4,6-dihydro-2H-thieno[3,4-c]pyrazol-3-yl)-3-(2-(4-methoxyphenyl)-8-methylimidazo[1,2-a]pyridin-3-yl)urea]
< 100 nM | Cc1c(OCC(CO)CO)nn(-c2ccccc2)c1NC(=O)Nc1c(-c2ccccc2)nc2c(C(F)(F)F)cccn12 [Example 25, 1-(3-(3-hydroxy-2-(hydroxymethyl)propoxy)-4-methyl-1-phenyl-1H-pyrazol-5-yl)-3-(2-phenyl-8-(trifluoromethyl)imidazo[1,2-a]pyridin-3-yl)urea]
< 100 nM | Cc1c(OCC(C)(C)O)nn(-c2ccccc2)c1NC(=O)Nc1c(-c2ccccc2)nc2c(C(F)(F)F)cccn12 [Example 26, 1-(3-(2-hydroxy-2-methylpropoxy)-4-methyl-1-phenyl-1H-pyrazol-5-yl)-3-(2-phenyl-8-(trifluoromethyl)imidazo[1,2-a]pyridin-3-yl)urea]
< 100 nM | Cc1c(OC[C@@H](C)O)nn(-c2ccccc2)c1NC(=O)Nc1c(-c2ccccc2)nc2c(C(F)(F)F)cccn12 [Example 27, (R)-1-(3-(2-hydroxypropoxy)-4-methyl-1-phenyl-1H-pyrazol-5-yl)-3-(2-phenyl-8-(trifluoromethyl)imidazo[1,2-a]pyridin-3-yl)urea]
< 100 nM | Cc1c(OC[C@H](O)CO)nn(-c2ccccc2)c1NC(=O)Nc1c(-c2ccccc2)nc2c(C(F)(F)F)cccn12 [Example 28, (R)-1-(3-(2,3-dihydroxypropoxy)-4-methyl-1-phenyl-1H-pyrazol-5-yl)-3-(2-phenyl-8-(trifluoromethyl)imidazo[1,2-a]pyridin-3-yl)urea]
< 100 nM | Cc1c(OC[C@@H](O)CO)nn(-c2ccccc2)c1NC(=O)Nc1c(-c2ccccc2)nc2c(C(F)(F)F)cccn12 [Example 29, (S)-1-(3-(2,3-dihydroxypropoxy)-4-methyl-1-phenyl-1H-pyrazol-5-yl)-3-(2-phenyl-8-(trifluoromethyl)imidazo[1,2-a]pyridin-3-yl)urea]
< 100 nM | Cc1c(-c2cnn(C)c2)nn(-c2ccccc2)c1NC(=O)Nc1c(-c2ccccc2)nc2c(C(F)(F)F)cccn12 [Example 30, 1-(1′,4-dimethyl-1-phenyl-1H,1′H-[3,4′-bipyrazol]-5-yl)-3-(2-phenyl-8-(trifluoromethyl)imidazo[1,2-a]pyridin-3-yl)urea]
